{"source": "paper PMC7490411", "about": "(Signal Transduction and Targeted Therapy, 2020)", "key": {"LTK": {"system": "LTK", "assay": "KINOMEscan", "assay_type": "binding", "conditions": "1000 nM"}, "BMPR1A": {"system": "BMPR1A", "assay": "KINOMEscan", "assay_type": "binding", "conditions": "1000 nM"}, "PFPK5(P.falciparum)": {"system": "PFPK5(P.falciparum)", "assay": "KINOMEscan", "assay_type": "binding", "conditions": "1000 nM"}, "CSNK1G1": {"system": "CSNK1G1", "assay": "KINOMEscan", "assay_type": "binding", "conditions": "1000 nM"}, "DLK": {"system": "DLK", "assay": "KINOMEscan", "assay_type": "binding", "conditions": "1000 nM"}, "CAMK1D": {"system": "CAMK1D", "assay": "KINOMEscan", "assay_type": "binding", "conditions": "1000 nM"}, "[1]": {"system": "ABL1(F317I)-phosphorylated", "assay": "KINOMEscan", "assay_type": "binding", "conditions": "1000 nM"}, "MET(Y1235D)": {"system": "MET(Y1235D)", "assay": "KINOMEscan", "assay_type": "binding", "conditions": "1000 nM"}, "EGFR(L858R,T790M)": {"system": "EGFR(L858R,T790M)", "assay": "KINOMEscan", "assay_type": "binding", "conditions": "1000 nM"}, "WNK3": {"system": "WNK3", "assay": "KINOMEscan", "assay_type": "binding", "conditions": "1000 nM"}, "[2]": {"system": "RPS6KA5(Kin.Dom.2-C-terminal)", "assay": "KINOMEscan", "assay_type": "binding", "conditions": "1000 nM"}, "TNK1": {"system": "TNK1", "assay": "KINOMEscan", "assay_type": "binding", "conditions": "1000 nM"}, "CLK2": {"system": "CLK2", "assay": "KINOMEscan", "assay_type": "binding", "conditions": "1000 nM"}, "[3]": {"system": "ABL1(F317L)-phosphorylated", "assay": "KINOMEscan", "assay_type": "binding", "conditions": "1000 nM"}, "CDK11": {"system": "CDK11", "assay": "KINOMEscan", "assay_type": "binding", "conditions": "1000 nM"}, "MTOR": {"system": "MTOR", "assay": "KINOMEscan", "assay_type": "binding", "conditions": "1000 nM"}, "GRK2": {"system": "GRK2", "assay": "KINOMEscan", "assay_type": "binding", "conditions": "1000 nM"}, "PLK1": {"system": "PLK1", "assay": "KINOMEscan", "assay_type": "binding", "conditions": "1000 nM"}, "AXL": {"system": "AXL", "assay": "KINOMEscan", "assay_type": "binding", "conditions": "1000 nM"}, "GRK3": {"system": "GRK3", "assay": "KINOMEscan", "assay_type": "binding", "conditions": "1000 nM"}, "FLT3(D835Y)": {"system": "FLT3(D835Y)", "assay": "KINOMEscan", "assay_type": "binding", "conditions": "1000 nM"}, "DAPK1": {"system": "DAPK1", "assay": "KINOMEscan", "assay_type": "binding", "conditions": "1000 nM"}, "FLT3(D835V)": {"system": "FLT3(D835V)", "assay": "KINOMEscan", "assay_type": "binding", "conditions": "1000 nM"}, "ACVR1": {"system": "ACVR1", "assay": "KINOMEscan", "assay_type": "binding", "conditions": "1000 nM"}, "ERK8": {"system": "ERK8", "assay": "KINOMEscan", "assay_type": "binding", "conditions": "1000 nM"}, "p38-delta": {"system": "p38-delta", "assay": "KINOMEscan", "assay_type": "binding", "conditions": "1000 nM"}, "SRPK3": {"system": "SRPK3", "assay": "KINOMEscan", "assay_type": "binding", "conditions": "1000 nM"}, "CLK4": {"system": "CLK4", "assay": "KINOMEscan", "assay_type": "binding", "conditions": "1000 nM"}, "BTK [4]": {"target": "T1, BTK (Homo sapiens, UniProt Q06187)", "T1 construct": "purchased Invitrogen (Carlsbad, CA, USA)", "assay": "KINOMEscan", "assay_type": "binding", "conditions": "1000 nM"}, "TAK1": {"system": "TAK1", "assay": "KINOMEscan", "assay_type": "binding", "conditions": "1000 nM"}, "MAK": {"system": "MAK", "assay": "KINOMEscan", "assay_type": "binding", "conditions": "1000 nM"}, "MARK4": {"system": "MARK4", "assay": "KINOMEscan", "assay_type": "binding", "conditions": "1000 nM"}, "CDKL5": {"system": "CDKL5", "assay": "KINOMEscan", "assay_type": "binding", "conditions": "1000 nM"}, "EPHB4": {"system": "EPHB4", "assay": "KINOMEscan", "assay_type": "binding", "conditions": "1000 nM"}, "NEK10": {"system": "NEK10", "assay": "KINOMEscan", "assay_type": "binding", "conditions": "1000 nM"}, "SYK": {"system": "SYK", "assay": "KINOMEscan", "assay_type": "binding", "conditions": "1000 nM"}, "CLK3": {"system": "CLK3", "assay": "KINOMEscan", "assay_type": "binding", "conditions": "1000 nM"}, "PIK3CA(M1043I)": {"system": "PIK3CA(M1043I)", "assay": "KINOMEscan", "assay_type": "binding", "conditions": "1000 nM"}, "[5]": {"system": "JAK1(JH2domain-pseudokinase)", "assay": "KINOMEscan", "assay_type": "binding", "conditions": "1000 nM"}, "MAPKAPK2": {"system": "MAPKAPK2", "assay": "KINOMEscan", "assay_type": "binding", "conditions": "1000 nM"}, "BTK [6]": {"target": "T1, BTK", "assay": "ADP-Glo biochemical kinase assay", "conditions": "purified BTK protein, read-out: IC50 against BTK", "method": "ADP-Glo^TM assay kits from Promega Corporation were used according to instructions. CHMFL-BTK-85 was generally prepared with 1:3 serial dilutions for 4 concentrations (300 nM, 100 nM, 30 nM, and 10 nM). 8 concentrations were used (1 μM to 1 nM) for ATP competition experiments. 2.5 µL BTK (10 ng/µL) was incubated with CHMFL-BTK-85 and CHMFL-BTK-85R for 60 min at room temperature in reaction buffer followed by addition of 2.5 µL ATP/substrate mixture. The assay was conducted for 1 h at 37 °C. After the plate cooled for 5 min at room temperature, 5 μL of ADP-Glo reagent was added into each well to stop the reaction and consume the remaining […] within 40 min. At the end, 10 µL kinase detection reagent was added and incubated for 30 min at room temperature. The luminescence signal was read with an envision Perkin Elmer plate reader (Envision, PE, USA).\nThe biochemical tests of BMX, BLK, JAK3, TXK, HER2, HER4, ITK, EGFR, and BTK were provided by Invitrogen (Carlsbad, CA, USA)."}, "STK36": {"system": "STK36", "assay": "KINOMEscan", "assay_type": "binding", "conditions": "1000 nM"}, "Mino cells": {"system": "Mino cells", "assay": "NK-cell-mediated ADCC, LDH release cytotoxicity assay, Rituximab", "assay_type": "cell-based, human", "method": "The cytotoxicity of NK cells was measured using the CyQUANT™ LDH Cytotoxicity Assay Kit (Invitrogen™, #C20300) according to the manufacturer’s instructions. Briefly, enriched NK cells (6 × 10^5 /ml) were cultured with the same volume of Mino cell and SK-OV-3 cell (1-2 × 10^4 /ml) in a 96-well plate for 4 h with Rituximab and Herceptin (10 μg/mL) and CHMFL-BTK-85 or PCI32765 at 37°C in a humidified CO2 incubator prior to removal of the supernatant for lactate dehydrogenase (LDH) release measurements. Calculate % Cytotoxicity by using the following formula: %Cytotoxicity = (Compound-treated LDH activity-Spontaneous LDH activity)/(Maximum LDH activity-Spontaneous LDH activity)*100."}}, "data": [{"compound": "C=CC(=O)Nc1cc(Nc2cc(-c3cccc(NC(=O)c4cc5c(s4)CCCC5)c3C)cn(C)c2=O)ccc1N1CCN(CC)CC1", "note": "[CHMFL-BTK-85]", "values": [{"measurement": "Percent Control", "setting": "LTK", "value": 100, "unit": "%"}, {"measurement": "Percent Control", "setting": "BMPR1A", "value": 97, "unit": "%"}, {"measurement": "Percent Control", "setting": "PFPK5(P.falciparum)", "value": 100, "unit": "%"}, {"measurement": "Percent Control", "setting": "CSNK1G1", "value": 95, "unit": "%"}, {"measurement": "Percent Control", "setting": "DLK", "value": 100, "unit": "%"}, {"measurement": "Percent Control", "setting": "CAMK1D", "value": 100, "unit": "%"}, {"measurement": "Percent Control", "setting": "[1]", "value": 100, "unit": "%"}, {"measurement": "Percent Control", "setting": "MET(Y1235D)", "value": 97, "unit": "%"}, {"measurement": "Percent Control", "setting": "EGFR(L858R,T790M)", "value": 99, "unit": "%"}, {"measurement": "Percent Control", "setting": "WNK3", "value": 100, "unit": "%"}, {"measurement": "Percent Control", "setting": "[2]", "value": 66, "unit": "%"}, {"measurement": "Percent Control", "setting": "TNK1", "value": 75, "unit": "%"}, {"measurement": "Percent Control", "setting": "CLK2", "value": 84, "unit": "%"}, {"measurement": "Percent Control", "setting": "[3]", "value": 100, "unit": "%"}, {"measurement": "Percent Control", "setting": "CDK11", "value": 82, "unit": "%"}, {"measurement": "Percent Control", "setting": "MTOR", "value": 100, "unit": "%"}, {"measurement": "Percent Control", "setting": "GRK2", "value": 100, "unit": "%"}, {"measurement": "Percent Control", "setting": "PLK1", "value": 100, "unit": "%"}, {"measurement": "Percent Control", "setting": "AXL", "value": 100, "unit": "%"}, {"measurement": "Percent Control", "setting": "GRK3", "value": 100, "unit": "%"}, {"measurement": "Percent Control", "setting": "FLT3(D835Y)", "value": 100, "unit": "%"}, {"measurement": "Percent Control", "setting": "DAPK1", "value": 98, "unit": "%"}, {"measurement": "Percent Control", "setting": "FLT3(D835V)", "value": 11, "unit": "%"}, {"measurement": "Percent Control", "setting": "ACVR1", "value": 99, "unit": "%"}, {"measurement": "Percent Control", "setting": "ERK8", "value": 95, "unit": "%"}, {"measurement": "Percent Control", "setting": "p38-delta", "value": 80, "unit": "%"}, {"measurement": "Percent Control", "setting": "SRPK3", "value": 83, "unit": "%"}, {"measurement": "Percent Control", "setting": "CLK4", "value": 96, "unit": "%"}, {"measurement": "percent of control binding at 1 µM", "setting": "BTK [4]", "value": 0.9, "unit": "%"}, {"measurement": "Percent Control", "setting": "TAK1", "value": 100, "unit": "%"}, {"measurement": "Percent Control", "setting": "MAK", "value": 89, "unit": "%"}, {"measurement": "Percent Control", "setting": "MARK4", "value": 66, "unit": "%"}, {"measurement": "Percent Control", "setting": "CDKL5", "value": 100, "unit": "%"}, {"measurement": "Percent Control", "setting": "EPHB4", "value": 67, "unit": "%"}, {"measurement": "Percent Control", "setting": "NEK10", "value": 100, "unit": "%"}, {"measurement": "Percent Control", "setting": "SYK", "value": 100, "unit": "%"}, {"measurement": "Percent Control", "setting": "CLK3", "value": 80, "unit": "%"}, {"measurement": "Percent Control", "setting": "PIK3CA(M1043I)", "value": 71, "unit": "%"}, {"measurement": "Percent Control", "setting": "[5]", "value": 96, "unit": "%"}, {"measurement": "Percent Control", "setting": "MAPKAPK2", "value": 86, "unit": "%"}, {"measurement": "IC50", "setting": "BTK [6]", "value": 11.5, "unit": "nM"}, {"measurement": "Percent Control", "setting": "STK36", "value": 99, "unit": "%"}, {"measurement": "effect on antibody-dependent NK-cell-mediated cytotoxicity (ADCC)", "setting": "Mino cells", "value": "did not affect"}]}]}
